# Results as given in PMC6199744, “Development of Chemical Proteomics for the Folateome and Analysis of the Kinetoplastid Folateome” (ACS Infectious Diseases, 2018).
# Where two headings read alike, the source gives them in different places.
# Assays:
# Assay type in all cases: binding
# [1] = molecular target: T1, HeLa cell extract proteins (Homo sapiens, UniProt Q13315)
# T1 construct: endogenous in cells; host or cells: HeLa cell extract
# [2] = molecular target: T2, HeLa cell extract proteins (Homo sapiens, UniProt Q15645)
# T2 construct: endogenous in cells; host or cells: HeLa cell extract
# T2 sequence (Q15645 1-432): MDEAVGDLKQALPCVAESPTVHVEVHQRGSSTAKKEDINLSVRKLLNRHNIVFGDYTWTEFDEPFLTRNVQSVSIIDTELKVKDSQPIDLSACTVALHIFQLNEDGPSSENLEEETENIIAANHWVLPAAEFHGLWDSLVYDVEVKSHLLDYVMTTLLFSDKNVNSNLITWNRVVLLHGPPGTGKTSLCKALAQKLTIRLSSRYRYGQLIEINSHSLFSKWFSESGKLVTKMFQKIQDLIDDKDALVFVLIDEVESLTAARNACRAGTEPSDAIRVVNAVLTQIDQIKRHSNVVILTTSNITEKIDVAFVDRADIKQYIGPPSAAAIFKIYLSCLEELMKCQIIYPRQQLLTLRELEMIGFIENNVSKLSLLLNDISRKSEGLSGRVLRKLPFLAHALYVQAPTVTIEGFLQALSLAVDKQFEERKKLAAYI
# [3] = molecular target: T3, HeLa cell extract proteins (Homo sapiens, UniProt Q16891)
# T3 construct: endogenous in cells; host or cells: HeLa cell extract
# T3 sequence (Q16891 34-758): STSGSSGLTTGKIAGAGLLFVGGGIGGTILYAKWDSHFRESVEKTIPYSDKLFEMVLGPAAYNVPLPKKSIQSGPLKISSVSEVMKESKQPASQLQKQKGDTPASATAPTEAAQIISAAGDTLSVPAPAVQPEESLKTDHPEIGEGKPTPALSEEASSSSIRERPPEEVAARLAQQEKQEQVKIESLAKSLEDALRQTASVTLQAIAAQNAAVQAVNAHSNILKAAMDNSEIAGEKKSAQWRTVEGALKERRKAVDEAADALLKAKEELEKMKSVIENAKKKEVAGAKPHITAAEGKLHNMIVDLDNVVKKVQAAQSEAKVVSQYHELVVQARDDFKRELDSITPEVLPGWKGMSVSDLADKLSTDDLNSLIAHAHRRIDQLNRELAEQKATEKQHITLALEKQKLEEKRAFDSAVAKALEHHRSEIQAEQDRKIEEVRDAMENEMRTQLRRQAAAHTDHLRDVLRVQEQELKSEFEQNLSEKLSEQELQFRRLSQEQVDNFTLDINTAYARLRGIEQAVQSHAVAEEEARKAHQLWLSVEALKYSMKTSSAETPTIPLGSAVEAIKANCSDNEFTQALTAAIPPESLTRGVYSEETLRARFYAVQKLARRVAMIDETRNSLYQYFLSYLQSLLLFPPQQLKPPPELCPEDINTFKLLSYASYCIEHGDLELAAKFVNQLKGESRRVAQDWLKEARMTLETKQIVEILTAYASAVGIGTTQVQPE
# [4] = molecular target: T4, HeLa cell extract proteins (Homo sapiens, UniProt Q9UL46)
# T4 construct: endogenous in cells; host or cells: HeLa cell extract
# [5] = molecular target: T5, HeLa cell extract proteins (Homo sapiens, UniProt P10515)
# T5 construct: endogenous in cells; host or cells: HeLa cell extract
# T5 sequence (P10515 87-647): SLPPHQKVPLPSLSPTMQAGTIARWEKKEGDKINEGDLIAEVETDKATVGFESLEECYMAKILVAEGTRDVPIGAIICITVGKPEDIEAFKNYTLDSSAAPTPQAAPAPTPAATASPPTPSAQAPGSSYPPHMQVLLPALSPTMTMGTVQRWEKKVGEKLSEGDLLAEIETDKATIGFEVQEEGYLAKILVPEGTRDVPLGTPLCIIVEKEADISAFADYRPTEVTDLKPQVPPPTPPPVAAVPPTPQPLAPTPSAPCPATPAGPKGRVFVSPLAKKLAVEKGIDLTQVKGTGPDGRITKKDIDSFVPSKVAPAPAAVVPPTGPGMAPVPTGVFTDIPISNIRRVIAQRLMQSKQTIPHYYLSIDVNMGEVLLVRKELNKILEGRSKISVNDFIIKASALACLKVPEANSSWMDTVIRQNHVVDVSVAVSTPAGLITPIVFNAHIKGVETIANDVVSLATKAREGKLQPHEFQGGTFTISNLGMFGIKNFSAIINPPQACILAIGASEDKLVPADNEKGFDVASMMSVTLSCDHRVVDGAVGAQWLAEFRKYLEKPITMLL
# [6] = molecular target: T6, HeLa cell extract proteins (Homo sapiens, UniProt Q9Y262)
# T6 construct: endogenous in cells; host or cells: HeLa cell extract
# [7] = molecular target: T7, HeLa cell extract proteins (Homo sapiens, UniProt P12277)
# T7 construct: endogenous in cells; host or cells: HeLa cell extract
# [8] = molecular target: T8, HeLa cell extract proteins (Homo sapiens, UniProt P00505)
# T8 construct: endogenous in cells; host or cells: HeLa cell extract
# T8 sequence (P00505 30-430): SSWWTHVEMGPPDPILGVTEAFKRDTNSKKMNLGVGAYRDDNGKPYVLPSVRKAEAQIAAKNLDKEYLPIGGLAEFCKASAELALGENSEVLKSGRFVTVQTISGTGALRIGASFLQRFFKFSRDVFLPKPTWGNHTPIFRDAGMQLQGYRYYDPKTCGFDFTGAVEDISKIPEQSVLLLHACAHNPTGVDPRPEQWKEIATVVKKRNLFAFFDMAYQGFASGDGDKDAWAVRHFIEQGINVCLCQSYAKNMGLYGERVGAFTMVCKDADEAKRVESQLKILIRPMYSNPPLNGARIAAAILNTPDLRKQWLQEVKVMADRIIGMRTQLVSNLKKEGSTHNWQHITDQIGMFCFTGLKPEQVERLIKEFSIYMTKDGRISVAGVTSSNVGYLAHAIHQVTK
# [9] = HeLa, protein DLAT (DIHYDROLIPOYLLYSINE-RESIDUE ACETYLTRANSFERASE COMPONENT OF PYRUVATE DEHYDROGENASE COMPLEX, MITOCHONDRIAL)
# [10] = HeLa, protein CKB (CREATINE KINASE B-TYPE.)
# T6 sequence (Q9Y262 whole entry): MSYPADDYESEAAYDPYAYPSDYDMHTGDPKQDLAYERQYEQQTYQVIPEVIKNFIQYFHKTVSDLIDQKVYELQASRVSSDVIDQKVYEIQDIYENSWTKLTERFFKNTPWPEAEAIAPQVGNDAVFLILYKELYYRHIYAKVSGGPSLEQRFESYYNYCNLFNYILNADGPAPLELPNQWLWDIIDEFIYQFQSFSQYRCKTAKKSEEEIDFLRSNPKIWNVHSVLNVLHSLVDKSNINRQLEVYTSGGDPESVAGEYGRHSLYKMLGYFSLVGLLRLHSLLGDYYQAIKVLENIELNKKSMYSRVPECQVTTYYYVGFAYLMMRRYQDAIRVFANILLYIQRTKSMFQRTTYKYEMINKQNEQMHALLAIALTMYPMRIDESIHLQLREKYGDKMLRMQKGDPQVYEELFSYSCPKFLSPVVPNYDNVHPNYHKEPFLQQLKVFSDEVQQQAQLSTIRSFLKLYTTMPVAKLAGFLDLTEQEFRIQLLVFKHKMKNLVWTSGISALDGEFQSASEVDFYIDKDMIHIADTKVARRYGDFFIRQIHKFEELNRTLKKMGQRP
# T1 sequence (Q13315 whole entry): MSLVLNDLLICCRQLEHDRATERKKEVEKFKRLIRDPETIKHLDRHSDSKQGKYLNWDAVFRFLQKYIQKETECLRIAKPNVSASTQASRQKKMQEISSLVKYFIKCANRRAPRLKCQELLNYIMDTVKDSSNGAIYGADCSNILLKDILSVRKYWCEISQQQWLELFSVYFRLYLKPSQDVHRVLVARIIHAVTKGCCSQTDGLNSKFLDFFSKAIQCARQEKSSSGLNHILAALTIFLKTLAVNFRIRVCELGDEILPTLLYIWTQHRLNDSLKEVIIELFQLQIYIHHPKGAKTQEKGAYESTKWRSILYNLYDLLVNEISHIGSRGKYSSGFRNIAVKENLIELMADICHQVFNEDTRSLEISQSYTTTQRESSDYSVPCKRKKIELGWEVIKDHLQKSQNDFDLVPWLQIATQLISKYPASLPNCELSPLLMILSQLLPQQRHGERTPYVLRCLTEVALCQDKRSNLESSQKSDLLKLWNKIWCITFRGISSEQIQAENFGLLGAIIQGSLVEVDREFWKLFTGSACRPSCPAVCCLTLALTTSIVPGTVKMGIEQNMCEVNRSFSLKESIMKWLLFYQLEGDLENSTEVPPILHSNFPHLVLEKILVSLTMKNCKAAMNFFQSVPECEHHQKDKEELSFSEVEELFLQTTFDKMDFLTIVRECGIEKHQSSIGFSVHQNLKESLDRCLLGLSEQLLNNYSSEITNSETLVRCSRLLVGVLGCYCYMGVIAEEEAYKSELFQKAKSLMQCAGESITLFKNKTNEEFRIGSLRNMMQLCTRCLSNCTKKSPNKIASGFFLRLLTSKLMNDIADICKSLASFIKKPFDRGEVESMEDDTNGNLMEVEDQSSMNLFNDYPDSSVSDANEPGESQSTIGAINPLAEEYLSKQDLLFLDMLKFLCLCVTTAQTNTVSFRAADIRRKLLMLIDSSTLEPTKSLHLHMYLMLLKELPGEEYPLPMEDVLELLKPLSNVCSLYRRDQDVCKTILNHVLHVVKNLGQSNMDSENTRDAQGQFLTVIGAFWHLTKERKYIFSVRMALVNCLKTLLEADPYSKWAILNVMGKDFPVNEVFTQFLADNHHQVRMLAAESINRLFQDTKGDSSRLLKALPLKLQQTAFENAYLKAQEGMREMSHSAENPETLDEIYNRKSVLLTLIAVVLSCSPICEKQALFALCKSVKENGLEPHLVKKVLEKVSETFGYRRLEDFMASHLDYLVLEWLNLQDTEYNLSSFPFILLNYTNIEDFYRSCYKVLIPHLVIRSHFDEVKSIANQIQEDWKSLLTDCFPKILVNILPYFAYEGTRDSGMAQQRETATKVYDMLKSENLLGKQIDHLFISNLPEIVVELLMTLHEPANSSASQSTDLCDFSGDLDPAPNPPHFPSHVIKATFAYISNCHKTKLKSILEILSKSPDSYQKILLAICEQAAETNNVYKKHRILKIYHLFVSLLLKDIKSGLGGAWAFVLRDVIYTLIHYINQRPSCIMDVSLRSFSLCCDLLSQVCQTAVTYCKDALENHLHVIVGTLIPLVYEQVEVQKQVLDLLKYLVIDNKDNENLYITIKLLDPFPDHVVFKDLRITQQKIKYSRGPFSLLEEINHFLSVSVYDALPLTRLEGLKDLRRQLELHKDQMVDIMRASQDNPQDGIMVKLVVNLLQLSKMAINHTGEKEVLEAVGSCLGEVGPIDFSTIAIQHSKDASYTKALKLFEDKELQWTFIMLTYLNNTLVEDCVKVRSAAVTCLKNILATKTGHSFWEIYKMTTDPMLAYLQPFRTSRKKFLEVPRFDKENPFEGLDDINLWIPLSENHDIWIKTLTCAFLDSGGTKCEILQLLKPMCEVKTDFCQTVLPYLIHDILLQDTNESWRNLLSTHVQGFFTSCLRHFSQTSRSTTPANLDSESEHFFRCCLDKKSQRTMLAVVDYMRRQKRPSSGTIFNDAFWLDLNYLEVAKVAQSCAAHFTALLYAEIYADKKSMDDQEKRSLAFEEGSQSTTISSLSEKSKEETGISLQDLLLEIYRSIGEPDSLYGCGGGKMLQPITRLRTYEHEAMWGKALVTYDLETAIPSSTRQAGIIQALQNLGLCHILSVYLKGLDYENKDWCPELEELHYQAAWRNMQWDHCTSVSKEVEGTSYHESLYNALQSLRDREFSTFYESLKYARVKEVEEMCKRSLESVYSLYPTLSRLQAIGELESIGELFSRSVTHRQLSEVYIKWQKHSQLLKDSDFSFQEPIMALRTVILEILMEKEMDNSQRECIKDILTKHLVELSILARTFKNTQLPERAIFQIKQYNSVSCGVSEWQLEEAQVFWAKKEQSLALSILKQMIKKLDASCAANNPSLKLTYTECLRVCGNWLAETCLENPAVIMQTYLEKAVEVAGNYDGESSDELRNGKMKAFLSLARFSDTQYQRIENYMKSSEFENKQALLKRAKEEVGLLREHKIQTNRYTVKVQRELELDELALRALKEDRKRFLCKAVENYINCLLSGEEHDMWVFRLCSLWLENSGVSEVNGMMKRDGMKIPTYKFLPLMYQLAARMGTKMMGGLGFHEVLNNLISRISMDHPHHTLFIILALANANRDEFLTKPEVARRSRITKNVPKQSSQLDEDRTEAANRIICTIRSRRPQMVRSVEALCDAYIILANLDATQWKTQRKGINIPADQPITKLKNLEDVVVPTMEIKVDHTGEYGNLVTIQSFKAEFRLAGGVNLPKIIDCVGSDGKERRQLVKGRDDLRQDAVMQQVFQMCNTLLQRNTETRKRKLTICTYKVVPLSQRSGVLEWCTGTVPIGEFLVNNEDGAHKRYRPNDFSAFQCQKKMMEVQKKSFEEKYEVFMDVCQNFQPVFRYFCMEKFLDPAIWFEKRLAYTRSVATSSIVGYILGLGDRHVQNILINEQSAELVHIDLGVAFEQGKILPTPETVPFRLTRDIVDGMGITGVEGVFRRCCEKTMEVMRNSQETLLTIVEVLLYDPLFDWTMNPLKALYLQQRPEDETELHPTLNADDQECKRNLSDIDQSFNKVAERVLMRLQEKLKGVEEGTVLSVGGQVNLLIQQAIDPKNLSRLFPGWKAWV
# T4 sequence (Q9UL46 whole entry): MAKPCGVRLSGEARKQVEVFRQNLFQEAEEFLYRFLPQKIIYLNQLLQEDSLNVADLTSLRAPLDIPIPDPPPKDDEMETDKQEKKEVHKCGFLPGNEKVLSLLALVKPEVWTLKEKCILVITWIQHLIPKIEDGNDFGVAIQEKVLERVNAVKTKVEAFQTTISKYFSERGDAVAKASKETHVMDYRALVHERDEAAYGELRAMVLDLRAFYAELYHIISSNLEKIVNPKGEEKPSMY
# T7 sequence (P12277 whole entry): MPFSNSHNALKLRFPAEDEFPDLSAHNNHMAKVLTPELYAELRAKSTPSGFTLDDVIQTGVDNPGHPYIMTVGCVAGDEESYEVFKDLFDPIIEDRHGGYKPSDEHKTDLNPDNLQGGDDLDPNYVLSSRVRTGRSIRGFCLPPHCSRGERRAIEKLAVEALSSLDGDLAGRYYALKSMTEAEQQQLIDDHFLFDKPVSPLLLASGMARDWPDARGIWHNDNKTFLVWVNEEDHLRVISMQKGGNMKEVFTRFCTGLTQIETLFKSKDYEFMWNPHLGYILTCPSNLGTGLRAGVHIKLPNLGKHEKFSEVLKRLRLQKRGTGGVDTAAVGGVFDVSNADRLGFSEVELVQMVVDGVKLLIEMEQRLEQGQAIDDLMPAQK
SMILES,"fold changes relative to vehicle control ([1]; HeLa, protein ATM)","fold changes relative to vehicle control ([2]; HeLa, protein TRIP13)","fold changes relative to vehicle control ([3]; HeLa, captured protein IMMT)","fold changes relative to vehicle control ([4]; HeLa, protein PSME2)","fold changes relative to vehicle control ([6]; HeLa, captured protein EIF3L)","fold changes relative to vehicle control ([7]; HeLa, protein CKB)","fold changes relative to vehicle control ([8]; HeLa, protein GOT2)","fold changes relative to vehicle control ([3]; HeLa, protein IMMT)","fold changes relative to vehicle control ([4]; protein PSME2, HeLa)","fold changes relative to vehicle control ([5]; protein DLAT, HeLa)","fold changes relative to vehicle control ([6]; protein EIF3L, HeLa)","fold changes relative to vehicle control [7, 10] [fold]","fold changes relative to vehicle control ([8]; protein GOT2, HeLa)",other results
"Nc1nc2c(c(=O)[nH]1)N(C=O)C(CNc1ccc(C(=O)N[C@@H](CCC(=O)O)C(=O)O)cc1)CN2 (some centres unmarked) [LEU, leucovorin]",0.92,0.92,0.97,0.94,1,1.01,0.94,,,,,,,"fold changes relative to vehicle control ([5]; HeLa, protein DLAT ([…]-RESIDUE ACETYLT[…] OF PYRUVATE DEH[…], MITOCHONDRIAL)): 1.05"
NCCCNc1ccc(C(=O)NC(CCC(=O)O)C(=O)O)cc1 (centres unmarked) [compound 7],1.09,1.09,1.09,0.89,0.93,0.93,0.94,,,,,,,"fold changes relative to vehicle control [5, 9]: 0.97"
CCCCCCOc1cccc(Cc2cnc(N)nc2N)c1 [compound 2],1.01,1.17,,,,,,1.14,1.38,0.39,1.25,2.55,2.22,
CCCCCCOc1ccc(Cc2cnc(N)nc2N)cc1 [compound 1],1.03,0.96,,,,,,0.96,1.01,0.98,1.05,1.55,1.12,
Nc1nc2cccc(-c3ccccc3)c2n1Cc1ccc(Cl)c(Cl)c1 [compound 3],1.14,1.24,,,,,,1.05,0.93,1.1,1.09,0.92,0.84,
NCCOCCOCC(=O)Nc1nc2ncc(CNc3ccc(C(=O)NC(CCC(=O)O)C(=O)O)cc3)nc2c(=O)[nH]1 (centres unmarked) [compound 6],1.1,0.94,1.03,0.95,1.07,1.23,1.16,,,,,,,"fold changes relative to vehicle control [5, 9]: 0.92"
"Nc1nc2[nH]cc(CCc3ccc(C(=O)N[C@@H](CCC(=O)O)C(=O)O)cc3)c2c(=O)[nH]1 [PTX, pemetrexed]",,,,,,,,,,,,,,fold changes relative to vehicle control [1]: 1.04; fold changes relative to vehicle control [2]: 0.88; fold changes relative to vehicle control [3]: 1.01; fold changes relative to vehicle control [4]: 0.9; fold changes relative to vehicle control [5]: 0.96; fold changes relative to vehicle control [6]: 0.91; fold changes relative to vehicle control [7]: 1.11; fold changes relative to vehicle control [8]: 0.99
